According to patent publication US12173005B1, “Pyrimido[1′,6′:1,5]pyrazolo[4,3-b][1,7]naphthyridine compounds as CK2 inhibitors” (KING FAISAL UNIVERSITY, priority 2023, dated 2024):

Key:
PC3 (prostate) = assay: MTT in vitro cytotoxic activity assay, PC3; type: cell-based; conditions: Homo sapiens; cells exposed for 96 hours; 50% inhibition of cell proliferation; read-out: Cytotoxicity activity IC50, PC3 (prostate)
Protocol: (§1) Compounds 1-16 were screened for their in vitro cytotoxic activity utilizing a 3-(4,5-dimethyl-thiazol-2-yl)-2,5-diphenyltetrazolium bromide (MTT) assay against selected cancer human cell lines consisting of PC3 (prostate), HCT116 (colon), A375 (melanoma), H1299 (lung), MIAPaCa-2 (pancreas), HL60 (leukemia), MCF7 (breast), MDA-MB-231 (breast) (T. Mosmann, J. Immunol. Meth., 1983, 65, 55-63). The cells were cultured at 37° C. in RMPI1640 medium supplemented with 10% fetal bovine serum, 50 IU/mL penicillin, and 50 μg/mL streptomycin in a 5% CO2 incubator. All cells were sub-cultured 3 times/week by trypsinisation. Viable cells were seeded and allowed to adhere for 12 h before a test drug was added in 96-well plates at an initial density of 1.0×10^5 cells/mL. Tumor cell lines were separately exposed to various concentrations of the tested compounds followed by incubation at a temperature of 37° C. during 96 hours inside a medium of fresh RMPI 1640. Cells were subsequently incubated at 37° C. using MTT at 0.5 mg/mL during 4 hours. After removal of supernatant, formazan crystals were dissolved in isopropanol and the optical density was measured at 570 nm. CX-4945 was used as a positive control.

HCT116 (colon) = assay: MTT in vitro cytotoxic activity assay, HCT116; type: cell-based; conditions: Homo sapiens, HCT-116; cells exposed for 96 hours; 50% inhibition of cell proliferation; read-out: Cytotoxicity activity IC50, HCT116 (colon)
Protocol: as §1

A375 (melanoma) = assay: MTT in vitro cytotoxic activity assay, A375; type: cell-based; conditions: Homo sapiens, A-375; cells exposed for 96 hours; 50% inhibition of cell proliferation; read-out: Cytotoxicity activity IC50, A375 (melanoma)
Protocol: as §1

H1299 (lung) = assay: MTT in vitro cytotoxic activity assay, H1299; type: cell-based; conditions: Homo sapiens, NCI-H1299; cells exposed for 96 hours; 50% inhibition of cell proliferation; read-out: Cytotoxicity activity IC50, H1299 (lung)
Protocol: as §1

MIAPaCa-2 (pancreas) = assay: MTT in vitro cytotoxic activity assay, MIAPaCa-2; type: cell-based; conditions: Homo sapiens, MIA PaCa-2; cells exposed for 96 hours; 50% inhibition of cell proliferation; read-out: Cytotoxicity activity IC50, MIAPaCa-2 (pancreas)
Protocol: as §1

HL60 (leukemia) = assay: MTT in vitro cytotoxic activity assay, HL60; type: cell-based; conditions: Homo sapiens, HL-60; cells exposed for 96 hours; 50% inhibition of cell proliferation; read-out: Cytotoxicity activity IC50, HL60 (leukemia)
Protocol: as §1

MCF7 (breast) = assay: MTT in vitro cytotoxic activity assay, MCF7; type: cell-based; conditions: Homo sapiens, cells exposed for 96 hours, 50% inhibition of cell proliferation, read-out: Cytotoxicity activity IC50, MCF7 (breast)
Protocol: as §1

MDA-MB-231 (breast) = assay: MTT in vitro cytotoxic activity assay, MDA-MB-231; type: cell-based; conditions: Homo sapiens, cells exposed for 96 hours, 50% inhibition of cell proliferation, read-out: Cytotoxicity activity IC50, MDA-MB-231 (breast)
Protocol: as §1

[1] = molecular target: T1, recombinant human CK2 (RRββ-holoenzyme) (Homo sapiens, UniProt P68400); assay: CK2 Kinase Assay (radiometric, [γ-33P] ATP); type: biochemical; conditions: final ATP concentration 15 μM; 10 min at 30° C.; read-out: protein kinase CK2 IC50
T1 construct: purchased Millipore
T1 sequence (P68400 whole entry): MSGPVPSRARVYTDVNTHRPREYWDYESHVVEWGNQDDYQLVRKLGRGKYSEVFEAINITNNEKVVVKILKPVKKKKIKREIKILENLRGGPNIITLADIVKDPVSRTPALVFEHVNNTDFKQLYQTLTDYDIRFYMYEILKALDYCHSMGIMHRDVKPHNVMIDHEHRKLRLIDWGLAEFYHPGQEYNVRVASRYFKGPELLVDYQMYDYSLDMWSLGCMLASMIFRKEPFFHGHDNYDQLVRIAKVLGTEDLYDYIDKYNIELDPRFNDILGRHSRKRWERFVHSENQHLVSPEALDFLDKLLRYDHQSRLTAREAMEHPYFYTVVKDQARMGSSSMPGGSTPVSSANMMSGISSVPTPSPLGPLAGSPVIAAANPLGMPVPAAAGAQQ
T1 sequence (P67870 whole entry partner): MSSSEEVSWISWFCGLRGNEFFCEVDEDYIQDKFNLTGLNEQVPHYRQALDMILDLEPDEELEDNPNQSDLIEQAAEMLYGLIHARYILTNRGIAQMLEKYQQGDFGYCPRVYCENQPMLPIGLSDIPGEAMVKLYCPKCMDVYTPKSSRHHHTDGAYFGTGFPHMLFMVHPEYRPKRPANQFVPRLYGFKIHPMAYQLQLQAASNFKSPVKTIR
Protocol: CK2 Kinase Assay was conducted using the protocol as described in Pierre F. et al; J. Med. Chem. 2011, 54, 635-654. The tested compounds in aqueous solution were added at a volume of 10 μL to a reaction mixture comprising 10 μL of assay dilution buffer (ADB; 20 mM MOPS, pH 7.2, 25 mM β-glycerol phosphate, 5 mM EGTA, 1 mM sodium orthovanadate, and 1 mM dithiothreitol), 10 μL of substrate peptide (RRRDDDSDDD, dissolved in ADB at a concentration of 1 mM), 10 μL of recombinant human CK2 (RRββ-holoenzyme, 25 ng dissolved in ADB; Millipore). Reactions were initiated by the addition of 10 μL of ATP solution (90% 75 mMMgCl2, 75 μM ATP (final ATP concentration: 15 μM) dissolved in ADB; 10% [γ-33P] ATP (stock 1mCi/100 μL; 3000 Ci/mmol (Perkin-Elmer) and maintained for 10 min at 30° C. The reactions were quenched with 100 μL of 0.75% phosphoric acid and then transferred to and filtered through a phosphor cellulose filter plate (Millipore). After washing each well five times with 0.75% phosphoric acid, the plate was dried under vacuum for 5 min and, following the addition of 15 μL of scintillation fluid to each well, the residual radioactivity was measured using a Wallac luminescence counter. The IC50 values were derived from eight concentrations of test inhibitors.

For `Clc1cccc(Nc2c3ccncc3nc3c2nn2cnccc32)c1` [Compound 1, N-(3-chlorophenyl)pyrimido[1′,6′:1,5]pyrazolo[4,3-b][1,7]naphthyridin-10-amine], the IC50 (PC3 (prostate)) was 1500 nM, the IC50 (HCT116 (colon)) was 1300 nM and the IC50 (A375 (melanoma)) was 3200 nM. It also gave an IC50 (H1299 (lung)) of 2900 nM, an IC50 (MIAPaCa-2 (pancreas)) of 1200 nM and an IC50 (HL60 (leukemia)) of 2700 nM. The IC50 (MCF7 (breast)) was 6500 nM, the IC50 (MDA-MB-231 (breast)) was 5100 nM and the IC50 [1] was 92 nM.
